Results published in US20080299086A1, “Cultured muscle cells with high metabolic activity and method for production of the cultured muscle cells” (TOHOKU UNIVERSITY, priority 2006, published 2008).

Experiments:
[1] = tested on: recombinant GLUT4 (myc-GLUT4-ECFP) in C2C12 myotube cells; test: Measurement of GLUT4 membrane-translocation activity by anti-myc antibody uptake, western blot analysis; type: cell-based, mouse; conditions: insulin 100 nM, 60 minutes
Method: The C2C12 myotube cells expressing a recombinant GLUT4, prepared according to Preparation Example 3, were stimulated by insulin with a final concentration of 100 nM for 60 minutes. After 30 minutes from the start of insulin stimulation, an anti-myc-monoclonal antibody with a final concentration of 4 μg/ml was supplemented in a culture medium. After insulin stimulation, the cells were washed 5 times with PBS (−) to remove anti-myc antibodies that were present on the cell membrane, and subsequently, a cell extract was prepared using Laemmli's buffer. The cell extract was used for 12.5% SDS-PAGE, and western blot analysis using an anti-mice-IgG antibody bound to horseradish peroxidase was carried out. Moreover, detection was carried out using a west super femto detection kit (Pierce Biotechnology Inc.).

[2] = tested on: myc-GLUT4-ECFP in C2C12 myotube cells; test: Immunostaining of myc on the membrane, confocal microscope (membrane translocation of GLUT4); type: cell-based, mouse; conditions: insulin 100 nM, 60 minutes; FIG. 13
Method: The C2C12 myotube cells (differentiation-type culture myotube cell) expressing a myc-GLUT4-ECFP, prepared according to Preparation Example 3, were stimulated by insulin with a final concentration of 100 nM for 60 minutes. After being washed 3 times with PBS (−), they were fixed by being shaken in PBS (−) supplemented with 2% paraformaldehyde for 15 minutes. After being washed 3 times×10 minutes with PBS (−), they were blocked by being shaken in PBS (−) supplemented with 5% bovine serum for 1 hour. Next, they were shaken for 1 hour using an anti-myc-monoclonal antibody diluted 200-fold with PBS (−) supplemented with 1% bovine serum albumin as a primary antibody. After being washed 5 times×10 minutes with PBS (−), they were shaken for 1 hour using an anti-mice-IgG antibody (The Jackson Laboratory) bound to rhodamine that was diluted 2000-fold with PBS (−) supplemented with 1% bovine serum albumin as a secondary antibody. Subsequently, the glass cover was removed, and they were placed on a glass slide on which Vecta Shield was dropped, and rhodamine and expression of ECFP were observed under a confocal microscope.

## insulin
[1]; FIG. 14A
  amount of the anti-myc antibody incorporated into the cells: significantly increased
[1]; anti-myc antibody 4 μg/ml, FIG. 14C
  GLUT4 activity increase by insulin (quantified western blot): approximately 3 fold
[2]
  membrane translocation of GLUT4 (myc on the membrane): GLUT4 was translocated on the membrane
